System: Alternaria solani
Assay: Activity against early blight of tomato caused by Alternaria solani (protective spray, potted tomato plants)
Type: in vivo
Settings: individual active compound, tomato leaves, evaluated after 5 days
Procedure: The active compounds were prepared separately as a stock solution comprising 0.25% by weight of active compound in acetone or DMSO. 1% by weight of the emulsifier Uniperol® EL (wetting agent having emulsifying and dispersing action based on ethoxylated alkylphenols) was added to this solution, and the mixture was diluted with water to the desired concentration.
Leaves of potted plants of the cultivar “Groβe Fleischtomate St. Pierre” were sprayed to runoff point with an aqueous suspension having the concentration of active compounds stated below. The next day, the leaves were infected with an aqueous […] suspension of Alternaria solani in 2% biomalt solution having a density of 0.17×10^6 spores/ml. The plants were then placed in a water-vapor-saturated chamber at temperatures of between 20 and 22 C. After 5 days, the infection on the leaves of the untreated, but infected control plants had developed to such an extent that the infection could be determined visually in %.
Evaluation was carried out by determining the infected leaf area in per cent. These percentages were converted into efficacies.
The efficacy (E) is calculated as follows using Abbot's formula: E=(1−α/β)·100 • α corresponds to the fungal infection of the treated plants in % and • β corresponds to the fungal infection of the untreated (control) plants in %
An efficacy of 0 means that the infection level of the treated plants corresponds to that of the untreated control plants; an efficacy of 100 means that the treated plants were not infected. […]

| SMILES | Efficacy in % of the untreated control (8 ppm in the spray liquor) [%] | Efficacy in % of the untreated control (16 ppm in the spray liquor) [%] | Efficacy in % of the untreated control (31 ppm in the spray liquor) [%] | Efficacy in % of the untreated control (63 ppm in the spray liquor) [%] |
| --- | --- | --- | --- | --- |
| N#Cc1sc2c(=O)c3ccccc3c(=O)c=2sc1C#N [I, dithianon] | 0 | 0 | 27 | 63 |
| O=C(Nc1ccccc1-c1ccc(Cl)cc1)c1cccnc1Cl [II-1, boscalid] | 63 | 76 | 82 | 88 |
| O=C(Nc1ccccc1-c1ccc(F)cc1)c1cccnc1Cl [II-2] | 27 | 39 | 27 | 88 |

Source: patent publication US7238362B2, “Dithianon-based fungicidal mixtures” (BASF Aktiengesellschaft, priority 2002, dated 2007)
